For data set [1] the following is noted: at therapeutic doses.
Data set [2] deals with sensitized cebus monkeys. Particulars: for Number of Monkeys with Dyskinetic Reactions/Number Tested: observed eight hours; for duration of reactions / intensity of reactions: typical reactions.
From the text: The compound of Formula II, clozapine, thioridazine or haloperidol were each orally administered to sensitized cebus monkeys. They were then observed in their home cages continuously for eight hours and occurrences of dyskinetic reactions noted.
The subject of data set [3] is rat striatal dihydroxyphenylacetic acid (DOPAC). Particulars: rat striatum, HPLC. An excerpt: (§1) A number of tests are recognized as showing antidopaminergic activity of a compound and/or as being predictive of antipsychotic activity in mammals. For these tests a compound of formula II in the form of a salt (for example, as described in Example 2) was used. All dosages in the tables are expressed as free base.
(§2) Among the various pharmacological effects of antipsychotics, their action as dopamine antagonists in the brain has been extensively investigated. Enhancement of dopamine metabolism (dihydroxyphenylacetic acid and homovanillic acid (DOPAC and HVA)) by antipsychotic agents has been attributed to a blockade of dopamine receptors [A. Carlson and M. Lindquist, Acta. Pharmac. Tox., (1963) 20: 140]. The effects of a compound of the invention on DOPAC and HVA levels in the rat striatum were measured by HPLC using electrochemcial detection according to the method of Saller and Salama [J. Chromatography, (1984) 309: 287].

Data set [4] has as its system rat striatal homovanillic acid (HVA). Particulars: rat striatum, HPLC.
From the text: as §1, §2

Data set [5] relates to amphetamine-induced hyperactivity. Particulars: for Activity Score (0-2 Hr) (Mean Number of Crossings of Center Line of Alley): vehicle 148. The method, then: A number of tests are recognized as showing antidopaminergic activity of a compound and/or as being predictive of antipsychotic activity in mammals. For these tests a compound of formula II in the form of a salt (for example, as described in Example 2) was used. All dosages in the tables are expressed as free base. This test has been described by Swerdlow and Koob [Pharmacol. Biochem. and Behav., 23: 303 (1985)]. Rats that are administered amphetamine at a moderate dose become hyperactivity. The hyperactivity can last for several hours, and can be measured in various ways, for example, by counting the number of times the rat walks from one end of a long alley to the other end. […] The hyperactivity of […]-treated rats can be antagonized (prevented) by pretreatment with dopamine-blocking agents. […] The compound of the present invention as the HCl salt or the vehicle (vehicle is defined in Example 5) were administered orally to 20 rats and […] injected intraperitoneally. Activity (walking back and forth in a long alley) was recorded for two hours.

Data set [6] relates to apomorphine-induced climbing. Particulars: for Mean Climb Score: 13-14 min after apomorphine HCl 1.25 mg/kg s.c., vehicle 24. The method, then: as §1
This test has been described by Ther and Schramm [Arch int. Pharmacodyn., 138: 302 (1962); Peuch, Simon and Boissier, Eur. J. Pharm., 50: 291 (1978)]. Mice that are administered an appropriate dose of apomorphine (a dopamine agonist) will climb the walls of a cage or other suitable structure and remain at or near the top for 20-30 minutes. Untreated mice on the other hand will occasionally climb up and then climb down. […] The antagonism of apomorphine-induced climbing in mice is therefore an indication of the potential dopamine blocking activity of the agent. Since dopamine blocking agents are typically antipsychotic agents, the test is considered to be evidence for potential antipsychotic activity of the agent. The vehicle itself [hydroxypropylmethylcellulose (HPMC) 0.5% w/v, polyoxyethylene (20) sorbitan monooleate (Tween 80) .1% w/v, and distilled water] or the vehicle with the test compound of the present invention was administered orally to twenty mice in graded doses. After 30 minutes, apomorphine HCl was administered subcutaneously at 1.25 mg/kg and the mice were placed in cages containing 28 horizontal rungs, upon which the mice could climb. Thirteen minutes later they were scored for climbing. The climbing score was the mean of the highest and lowest rungs on which the mouse climbed during a one-minute time period from 13 ° 14 minutes after apomorphine.

Data set [7] deals with squirrel monkeys. The note with it: for Number of Monkeys Scoring 75% (Or Less) Avoidance Responses/Number Tested: vehicle 0/20.
From the text: as §1
The conditioned avoidance test has been described by Herz, A., Int. Rev. Neurobiol., (1960) 2: 229-277. In this test, a warning stimulus is presented for five seconds. The monkeys are trained to press a lever to turn off the warning stimulus thereby avoiding the delivery of electric shocks at 1/sec for 10 seconds that would begin at the end of the warning stimulus. If there is no response during the warning stimulus (no avoidance response) and the shocks begin, a response during the shocks stops the shocks. Trials of this type are repeated every minute for six hours. […] A compound of the present invention Formula II (HCl salt) was administered orally and the conditioned avoidance test was administered. The vehicle used was that defined in Example 5.

Data set [8] has as its system schizophrenic patients. The note with it: background statement; cited from earlier work.
Data set [9] concerns sensitized cebus monkeys. Particulars: background statement; cited from earlier work.
[10] abbreviates: 20 mg/kg p.o., one of two reacting monkeys.

Where a name gives a salt, the structure may show the parent alone. Read-outs that look alike come from different tables or passages of the source.

As for `OCCOCCN1CCN(C2=Nc3ccccc3Sc3ccccc32)CC1` [Formula II, 11-[4-[2-(2-Hydroxyethoxy)ethyl]-1-piperazinyl]-dibenzo[b,f][1,4]thiazepine], the overt toxicity result in data set [1] is on record as “No overt toxicity”.
For `O=C(CCCN1CCC(O)(c2ccc(Cl)cc2)CC1)c1ccc(F)cc1` [Haloperidol, reference compound], the “Number of Monkeys with Dyskinetic Reactions/Number Tested” value in [2] (1.0 mg/kg p.o.) is recorded as 13/13. For the same molecule, in data set [2] (oral), the duration of reactions entry is given as “several” and the intensity of reactions result is “moderate or high intensity”.
With `OCCOCCN1CCN(C2=Nc3ccccc3Sc3ccccc32)CC1` [Formula II (HCl salt), 11-[4-[2-(2-Hydroxyethoxy)ethyl]-1-piperaziny]dibenzo [b,f][1,4]thiazepine, hydrochloride salt], the “% Control DOPAC” value in [3] (10 mg/kg i.p.) is reported as 145 % Control; in data set [3] (20 mg/kg i.p.), 220 % Control; in data set [3] (40 mg/kg i.p.), 300 % Control. Besides, the entries for the “% Control HVA” value in [4] (10 mg/kg i.p.), in data set [4] (20 mg/kg i.p.) and in data set [4] (40 mg/kg i.p.) were 140 % Control, 210 % Control and 260 % Control, respectively. The “Number of Monkeys with Dyskinetic Reactions/Number Tested” value in data set [2] (2.5 mg/kg p.o.) was 0/13; in [2] (5 mg/kg p.o.) it was 1/13; in [2] (10 mg/kg p.o.), 1/13; in [2] (20 mg/kg p.o., hydrochloride salt), 2/13; in data set [2] (20 mg/kg p.o., listed as compound of the present invention, hydrochloride salt) it was “two of thirteen”; in data set [2] (40 mg/kg p.o.), 0/4. Besides, the duration of reaction result was “about twenty” in data set [2] (10 mg/kg) and “about five” in [2] (setting [10]). Also, the results for the intensity of reaction result in data set [2] (10 mg/kg) and in data set [2] (setting [10]) were “weak” and “extremely weak”, respectively. Further, the “dyskinetic and dystonic reactions” value in [2] (compared to haloperidol or thioridazine, oral) was “markedly fewer dyskinetic and dystonic reactions”. Besides, in data set [2] (compared to thioridazine or haloperidol, oral), the “intensity of the reactions” value is “less than that of thioridazine or haloperidol”. For the same molecule, the “Activity Score (0-2 Hr) (Mean Number of Crossings of Center Line of Alley)” value came to 118.3 Crossings in data set [5] (10 mg/kg p.o., p < .05); 92.4 Crossings in data set [5] (20 mg/kg p.o., p < .0005); 64.3 Crossings in [5] (40 mg/kg p.o., p < .0005); 39.8 Crossings in [5] (80 mg/kg p.o., p < .0005). The “antagonism of amphetamine-induced hyperactivity” value in data set [5] (result in words) is “antagonized the hyperactivity”. Also, the “Mean Climb Score” value in [6] (10 mg/kg i.p. (head; text: orally)) is given as 24; in [6] (20 mg/kg i.p. (head; text: orally)), 15; in data set [6] (40 mg/kg i.p. (head; text: orally)), 2; in data set [6] (80 mg/kg i.p. (head; text: orally)), 0. The “antagonism of apomorphine-induced climbing” value in data set [6] (result in words) was “antagonized the climbing”. Further, the “Number of Monkeys Scoring 75% (Or Less) Avoidance Responses/Number Tested” value in data set [7] (5 mg/kg p.o.) is 0/4; in data set [7] (10 mg/kg p.o.) it was 15/20; in data set [7] (20 mg/kg p.o.), 19/20. In addition, the “reduction of avoidance responses” value in data set [7] (result in words, oral) is on record as “marked reduction of avoidance responses”.
Consider `CN1CCN(C2=Nc3cc(Cl)ccc3Nc3ccccc32)CC1` [Clozapine, reference compound], for which the tardive dyskinesia reported result in [8] is recorded as “no tardive dyskinesia reported”. Moreover, the “Number of Monkeys with Dyskinetic Reactions/Number Tested” value in [2] (10 mg/kg p.o.) is 0/1; in [2] (20 mg/kg p.o.), 0/13; in data set [2] (40 mg/kg p.o.) it was 0/11; in data set [2] (60 mg/kg p.o.), 0/5. Further, the “dyskinetic reaction in sensitized cebus monkeys” value in data set [9] is on record as “does not produce a dyskinetic reaction”.
Regarding `CSc1ccc2c(c1)N(CCC1CCCCN1C)c1ccccc1S2` (stereo not drawn) [Thioridazine, reference compound], the “Number of Monkeys with Dyskinetic Reactions/Number Tested” value in data set [2] (10 mg/kg p.o.) is reported as 11/13. In addition, in data set [2] (oral), the duration of reactions result is reported as “several” and the intensity of reactions result is on record as “moderate or high intensity”.

Values taken from patent US4879288A, “Novel dibenzothiazepine antipsychotic” (ICI Americas Inc., priority 1986, dated 1989).
